Experimental data reported in patent US12662465B2, “EGFR inhibitors” (Blueprint Medicines Corporation, priority 2021, dated 2026).
Like-named read-outs stand apart in the source and are kept apart here.

Legend:
EGFR L858R = target: T1, EGFR L858R (Homo sapiens, UniProt P00533, L858R); experiment: Biochemical EGFR inhibition assay (Caliper mobility shift), EGFR L858R; conditions: read-out: Enz EGFR_L858R IC50
T1 construct: purchased SignalChem E10-122BG

EGFR (d746-750) = target: T2, EGFR (d746-750) (Homo sapiens, UniProt P00533, DEL746-750); experiment: Biochemical EGFR inhibition assay (Caliper mobility shift), EGFR (d746-750); conditions: read-out: Enz EGFR_Exon19-del746-750 IC50
T2 construct: purchased SignalChem E10-122JG

[1] = target: intracellular phosphorylation of EGFR (Tyr1068) in PC-9 cells (Ex19Del) (Homo sapiens, UniProt P00533, DEL746-750); experiment: PC-9 pEGFR AlphaLISA assay; type: cell-based; conditions: 4 hours compound incubation, read-out: Ext pEGFR_PC-9 Ex19Del IC50
[2] = 1.0 mM ATP or ATP Km, room temperature (25° C.)

T1 sequence (P00533 25-1210 L858R): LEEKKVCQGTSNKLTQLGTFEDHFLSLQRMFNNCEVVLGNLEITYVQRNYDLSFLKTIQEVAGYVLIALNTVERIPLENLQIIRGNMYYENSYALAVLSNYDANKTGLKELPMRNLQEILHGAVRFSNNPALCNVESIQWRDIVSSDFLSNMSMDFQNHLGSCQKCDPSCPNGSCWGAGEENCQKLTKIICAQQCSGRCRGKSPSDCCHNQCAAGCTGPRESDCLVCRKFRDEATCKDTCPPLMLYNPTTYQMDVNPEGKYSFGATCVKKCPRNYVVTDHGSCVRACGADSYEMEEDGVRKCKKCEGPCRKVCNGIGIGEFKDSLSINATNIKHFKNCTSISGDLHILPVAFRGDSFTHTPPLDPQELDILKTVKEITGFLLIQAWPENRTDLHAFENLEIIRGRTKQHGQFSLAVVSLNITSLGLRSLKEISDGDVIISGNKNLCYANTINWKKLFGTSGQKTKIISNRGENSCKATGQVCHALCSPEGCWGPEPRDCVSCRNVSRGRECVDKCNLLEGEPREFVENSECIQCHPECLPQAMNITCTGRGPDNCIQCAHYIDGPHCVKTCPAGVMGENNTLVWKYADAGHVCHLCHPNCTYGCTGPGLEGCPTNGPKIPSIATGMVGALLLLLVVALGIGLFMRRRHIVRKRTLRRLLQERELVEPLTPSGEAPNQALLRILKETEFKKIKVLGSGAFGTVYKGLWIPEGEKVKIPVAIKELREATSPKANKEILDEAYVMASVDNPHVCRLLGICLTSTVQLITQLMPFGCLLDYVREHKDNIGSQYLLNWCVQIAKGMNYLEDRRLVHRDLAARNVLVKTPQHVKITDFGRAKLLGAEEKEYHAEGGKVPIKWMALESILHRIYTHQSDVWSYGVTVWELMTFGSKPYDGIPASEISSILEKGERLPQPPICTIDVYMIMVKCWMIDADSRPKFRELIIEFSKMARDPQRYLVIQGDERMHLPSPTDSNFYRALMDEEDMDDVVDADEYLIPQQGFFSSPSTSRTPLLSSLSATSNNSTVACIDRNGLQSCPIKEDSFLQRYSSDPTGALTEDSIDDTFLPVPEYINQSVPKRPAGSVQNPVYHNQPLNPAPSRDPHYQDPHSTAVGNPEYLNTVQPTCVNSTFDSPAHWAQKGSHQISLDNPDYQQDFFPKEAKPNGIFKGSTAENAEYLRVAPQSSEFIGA
Chain of intracellular phosphorylation of EGFR (Tyr1068) in PC-9 cells (Ex19Del) (P00533 with tags, fused parts or gaps DEL746-750): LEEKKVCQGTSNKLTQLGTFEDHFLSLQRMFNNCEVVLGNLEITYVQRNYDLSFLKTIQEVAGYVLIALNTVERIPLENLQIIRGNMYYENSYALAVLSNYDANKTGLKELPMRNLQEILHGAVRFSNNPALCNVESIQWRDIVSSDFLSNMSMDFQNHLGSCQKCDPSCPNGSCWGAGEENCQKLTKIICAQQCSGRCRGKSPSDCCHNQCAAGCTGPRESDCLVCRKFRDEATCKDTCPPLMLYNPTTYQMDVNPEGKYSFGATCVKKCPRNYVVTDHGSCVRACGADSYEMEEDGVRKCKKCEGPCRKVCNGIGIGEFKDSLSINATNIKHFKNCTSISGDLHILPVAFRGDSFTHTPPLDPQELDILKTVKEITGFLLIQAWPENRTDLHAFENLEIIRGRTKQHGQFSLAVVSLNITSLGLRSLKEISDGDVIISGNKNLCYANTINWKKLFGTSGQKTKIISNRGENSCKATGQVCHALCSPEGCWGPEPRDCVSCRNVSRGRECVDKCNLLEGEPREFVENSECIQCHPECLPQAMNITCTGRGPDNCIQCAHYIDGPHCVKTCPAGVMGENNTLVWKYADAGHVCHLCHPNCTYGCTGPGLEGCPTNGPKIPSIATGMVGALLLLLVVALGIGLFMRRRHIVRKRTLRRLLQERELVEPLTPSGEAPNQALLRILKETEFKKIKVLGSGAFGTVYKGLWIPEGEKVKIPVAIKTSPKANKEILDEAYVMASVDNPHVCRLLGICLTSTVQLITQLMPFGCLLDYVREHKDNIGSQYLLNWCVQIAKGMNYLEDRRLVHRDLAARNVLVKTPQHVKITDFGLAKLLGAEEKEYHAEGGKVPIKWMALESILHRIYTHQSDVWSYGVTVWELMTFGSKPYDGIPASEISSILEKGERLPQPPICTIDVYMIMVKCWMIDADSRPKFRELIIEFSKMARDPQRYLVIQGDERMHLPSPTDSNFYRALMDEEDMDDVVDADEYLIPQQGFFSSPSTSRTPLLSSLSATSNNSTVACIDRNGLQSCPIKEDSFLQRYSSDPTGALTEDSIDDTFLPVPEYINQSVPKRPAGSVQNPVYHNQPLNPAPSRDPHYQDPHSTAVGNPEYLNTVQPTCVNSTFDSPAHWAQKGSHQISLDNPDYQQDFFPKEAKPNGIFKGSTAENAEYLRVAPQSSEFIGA
T2 sequence (P00533 with tags, fused parts or gaps DEL746-750 limits assumed): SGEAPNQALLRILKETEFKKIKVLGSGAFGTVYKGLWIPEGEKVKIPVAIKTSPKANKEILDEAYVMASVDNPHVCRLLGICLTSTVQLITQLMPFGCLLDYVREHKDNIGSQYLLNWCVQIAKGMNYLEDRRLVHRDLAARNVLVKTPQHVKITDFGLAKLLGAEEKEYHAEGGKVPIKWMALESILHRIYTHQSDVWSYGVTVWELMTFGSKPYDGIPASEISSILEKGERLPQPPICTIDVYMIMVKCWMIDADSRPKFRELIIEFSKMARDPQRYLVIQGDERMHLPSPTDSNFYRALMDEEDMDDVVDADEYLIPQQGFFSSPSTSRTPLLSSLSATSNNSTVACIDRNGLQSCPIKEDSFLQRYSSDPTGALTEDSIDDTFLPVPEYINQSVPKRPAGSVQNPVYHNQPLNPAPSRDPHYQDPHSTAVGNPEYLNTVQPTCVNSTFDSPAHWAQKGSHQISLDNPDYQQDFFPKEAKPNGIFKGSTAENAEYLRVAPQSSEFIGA

## C[C@H](CN(C)C)Oc1cc(N2CCO[C@@H](C(F)F)C2)cc2ncnc(Nc3ccc4ncccc4c3F)c12 (single isomer, unassigned) [Example 99a, 7-((S)-2-(difluoromethyl)morpholino)-5-(((R)-1-(dimethylamino)propan-2-yl)oxy)-N-(5-fluoroquinolin-6-yl) or 7-((R)-2-(difluoromethyl)morpholino)-5-(((R)-1-(dimethylamino)propan-2-yl)oxy)-N-(5-fluoroquinolin-6-yl)quinazolin-4-amine]
EGFR L858R; [2]
  IC50: < 0.01 µM
EGFR (d746-750); [2]
  IC50: < 0.01 µM
[1]
  IC50: ≤ 0.01 µM

## C[C@H](CN(C)C)Oc1cc(N2CCO[C@@H](C(F)F)C2)cc2ncnc(Nc3ccc4ncccc4c3F)c12 (single isomer, unassigned) [Example 99b, 7-((R)-2-(difluoromethyl)morpholino)-5-(((R)-1-(dimethylamino)propan-2-yl)oxy)-N-(5-fluoroquinolin-6-yl)quinazolin-4-amine or 7-((S)-2-(difluoromethyl)morpholino)-5-(((R)-1-(dimethylamino)propan-2-yl)oxy)-N-(5-fluoroquinolin-6-yl)]
EGFR L858R; [2]
  IC50: 0.0101 to 0.05 µM
EGFR (d746-750); [2]
  IC50: < 0.01 µM
[1]
  IC50: 0.0101 to 0.05 µM

## C[C@@H](Oc1cc(-c2cnn([C@@H](C)CO)c2)cc2ncnc(Nc3ccc4ncccc4c3F)c12)C1COC1 (single isomer, unassigned) [Example 121, (S)-2-(4-(4-((5-fluoroquinolin-6-yl)amino)-5-((R)-1-(oxetan-3-yl)ethoxy)quinazolin-7-yl)-1H-pyrazol-1-yl)propan-1-ol or (R)-2-(4-(4-((5-fluoroquinolin-6-yl)amino)-5-((R)-1-(oxetan-3-yl)ethoxy)quinazolin-7-yl)-1H-pyrazol-1-yl)propan-1-ol]
EGFR L858R; [2]
  IC50: < 0.01 µM
EGFR (d746-750); [2]
  IC50: < 0.01 µM
[1]
  IC50: ≤ 0.01 µM

## C[C@@H](Oc1cc(-c2cnn(C)c2)cc2ncnc(Nc3ccc4ncccc4c3F)c12)[C@@H]1COCCN1 (single isomer, unassigned) [Example 123]
EGFR L858R; [2]
  IC50: < 0.01 µM
EGFR (d746-750); [2]
  IC50: < 0.01 µM
[1]
  IC50: ≤ 0.01 µM

## C[C@@H](Oc1cc(-c2cnn(C)c2)cc2ncnc(Nc3ccc4ncccc4c3F)c12)[C@@H]1COCCN1 (single isomer, unassigned) [Example 124]
EGFR L858R; [2]
  IC50: < 0.01 µM
EGFR (d746-750); [2]
  IC50: < 0.01 µM
[1]
  IC50: 0.0101 to 0.05 µM

## C[C@@H](Oc1cc(-c2cnn(C)c2)cc2ncnc(Nc3ccc4ncccc4c3F)c12)[C@@H]1COCCN1C (single isomer, unassigned) [Example 125]
EGFR L858R; [2]
  IC50: < 0.01 µM
EGFR (d746-750); [2]
  IC50: < 0.01 µM
[1]
  IC50: 0.0101 to 0.05 µM

## C[C@@H](Oc1cc(-c2cnn(C)c2)cc2ncnc(Nc3ccc4ncccc4c3F)c12)[C@@H]1COCCN1C (single isomer, unassigned) [Example 126]
EGFR L858R; [2]
  IC50: < 0.01 µM
EGFR (d746-750); [2]
  IC50: < 0.01 µM
[1]
  IC50: ≤ 0.01 µM

## C[C@H](CN(C)C)Oc1cc(-c2cnn(C)c2)cc2c1c(Nc1ccc3ncccc3c1F)nc[n+]2[O-] (single isomer, unassigned) [Example 127]
EGFR L858R
  IC50: < 0.01 µM
EGFR (d746-750)
  IC50: < 0.01 µM
[1]
  IC50: 0.0101 to 0.05 µM

## C[C@H](CN(C)C)Oc1cc(-c2cnn(C)c2)cc2nc[n+]([O-])c(Nc3ccc4ncccc4c3F)c12 (single isomer, unassigned) [Example 128]
EGFR L858R
  IC50: 0.0101 to 0.05 µM
EGFR (d746-750)
  IC50: 0.0101 to 0.05 µM
[1]
  IC50: > 0.0501 µM

## C[C@H](CN(C)C)Oc1cc(-c2cnn(C)c2)cc2ncnc(Nc3ccc4c(ccc[n+]4[O-])c3F)c12 (single isomer, unassigned) [Example 129]
EGFR L858R
  IC50: 0.0101 to 0.05 µM
EGFR (d746-750)
  IC50: < 0.01 µM
[1]
  IC50: 0.0101 to 0.05 µM

## C[C@H](Oc1cc(-c2cnn(C)c2)cc2ncnc(Nc3ccc4ncccc4c3F)c12)[C@@H](C)O (single isomer, unassigned) [Example 132, (2R,3S)-3-((4-((5-fluoroquinolin-6-yl)amino)-7-(1-methyl-1H-pyrazol-4-yl)quinazolin-5-yl)oxy)butan-2-ol or (2S,3R)-3-((4-((5-fluoroquinolin-6-yl)amino)-7-(1-methyl-1H-pyrazol-4-yl)quinazolin-5-yl)oxy)butan-2-ol]
EGFR L858R; [2]
  IC50: < 0.01 µM
EGFR (d746-750); [2]
  IC50: < 0.01 µM
[1]
  IC50: ≤ 0.01 µM

## C[C@H](Oc1cc(-c2cnn(C)c2)cc2ncnc(Nc3ccc4ncccc4c3F)c12)C(=O)N(C)C (single isomer, unassigned) [Example 137, (S)-2-((4-((5-fluoroquinolin-6-yl)amino)-7-(1-methyl-1H-pyrazol-4-yl)quinazolin-5-yl)oxy)-N,N-dimethylpropanamide or (R)-2-((4-((5-fluoroquinolin-6-yl)amino)-7-(1-methyl-1H-pyrazol-4-yl)quinazolin-5-yl)oxy)-N,N-dimethylpropanamide]
EGFR L858R; [2]
  IC50: < 0.01 µM
EGFR (d746-750); [2]
  IC50: < 0.01 µM
[1]
  IC50: ≤ 0.01 µM

## C[C@H](Oc1cc(-c2cnn(C)c2)cc2ncnc(Nc3ccc4ncccc4c3F)c12)C(=O)N1CCOCC1 (single isomer, unassigned) [Example 139, (S)-2-((4-((5-fluoroquinolin-6-yl)amino)-7-(1-methyl-1H-pyrazol-4-yl)quinazolin-5-yl)oxy)-1-morpholinopropan-1-one or (R)-2-((4-((5-fluoroquinolin-6-yl)amino)-7-(1-methyl-1H-pyrazol-4-yl)quinazolin-5-yl)oxy)-1-morpholinopropan-1-one]
EGFR L858R; [2]
  IC50: < 0.01 µM
EGFR (d746-750); [2]
  IC50: < 0.01 µM
[1]
  IC50: ≤ 0.01 µM

## CN(C)[C@@H]1CC[C@H]1Oc1cc(-c2cnn(C)c2)cc2ncnc(Nc3ccc4ncccc4c3F)c12 (single isomer, unassigned) [Example 141, 5-((1R,2R)-2-(dimethylamino)cyclobutoxy)-N-(5-fluoroquinolin-6-yl)-7-(1-methyl-1H-pyrazol-4-yl)quinazolin-4-amine or 5-((1S,2S)-2-(dimethylamino)cyclobutoxy)-N-(5-fluoroquinolin-6-yl)-7-(1-methyl-1H-pyrazol-4-yl)quinazolin-4-amine]
EGFR L858R; [2]
  IC50: 0.0101 to 0.05 µM
EGFR (d746-750); [2]
  IC50: 0.0101 to 0.05 µM
[1]
  IC50: > 0.0501 µM

## CN1CC[C@H](Oc2cc(-c3cnn(C)c3)cc3ncnc(Nc4ccc5ncccc5c4F)c23)[C@@H](F)C1 (single isomer, unassigned) [Example 144, 5-(((3S,4S)-3-fluoro-1-methylpiperidin-4-yl)oxy)-N-(5-fluoroquinolin-6-yl)-7-(1-methyl-1H-pyrazol-4-yl)quinazolin-4-amine or 5-(((3R,4R)-3-fluoro-1-methylpiperidin-4-yl)oxy)-N-(5-fluoroquinolin-6-yl)-7-(1-methyl-1H-pyrazol-4-yl)quinazolin-4-amine]
EGFR L858R; [2]
  IC50: < 0.01 µM
EGFR (d746-750); [2]
  IC50: < 0.01 µM
[1]
  IC50: 0.0101 to 0.05 µM

## C[C@H](Oc1cc(-c2cnn(C)c2)cc2ncnc(Nc3ccc4ncccc4c3F)c12)[C@@H]1CCCN1C (single isomer, unassigned) [Example 145]
EGFR L858R; [2]
  IC50: 0.0101 to 0.05 µM
EGFR (d746-750); [2]
  IC50: 0.0101 to 0.05 µM
[1]
  IC50: > 0.0501 µM

## C[C@H](Oc1cc(-c2cnn(C)c2)cc2ncnc(Nc3ccc4ncccc4c3F)c12)[C@@H]1CCCN1C (single isomer, unassigned) [Example 146]
EGFR L858R; [2]
  IC50: < 0.01 µM
EGFR (d746-750); [2]
  IC50: < 0.01 µM
[1]
  IC50: ≤ 0.01 µM

## C[C@H](Oc1cc(-c2cnn(C)c2)cc2ncnc(Nc3ccc4ncccc4c3F)c12)[C@@H]1CCCN1C (single isomer, unassigned) [Example 147]
EGFR L858R; [2]
  IC50: < 0.01 µM
EGFR (d746-750); [2]
  IC50: < 0.01 µM
[1]
  IC50: ≤ 0.01 µM

## C[C@H](Oc1cc(-c2cnn(C)c2)cc2ncnc(Nc3ccc4ncccc4c3F)c12)[C@@H]1CCCN1C (single isomer, unassigned) [Example 148]
EGFR L858R; [2]
  IC50: 0.0101 to 0.05 µM
EGFR (d746-750); [2]
  IC50: 0.0101 to 0.05 µM
[1]
  IC50: > 0.0501 µM

## CO[C@H]1CCN(c2cc3ncnc(Nc4ccc5ncccc5c4F)c3c(OC(C)CN(C)C)n2)C1 (stereo in doubt) [Example 77, 5—(((S)-1-(dimethylamino)propan-2-yl)oxy)-N-(5-fluoroquinolin-6-yl)-7-((S)-3-methoxypyrrolidin-1-yl)pyrido[4,3-d]pyrimidin-4-amine]
EGFR L858R
  IC50: 0.0101 to 0.05 µM
EGFR (d746-750)
  IC50: < 0.01 µM
[1]
  IC50: 0.0101 to 0.05 µM

## C[C@@H](Oc1cc(-c2cnn(C)c2)cc2ncnc(Nc3ccc4ncc(F)cc4c3)c12)C1COC1 [Example 3, (R)—N-(3-fluoroquinolin-6-yl)-7-(1-methyl-1H-pyrazol-4-yl)-5-(1-(oxetan-3-yl)ethoxy)quinazolin-4-amine]
EGFR L858R
  IC50: < 0.01 µM
EGFR (d746-750)
  IC50: < 0.01 µM
[1]
  IC50: ≤ 0.01 µM

## C[C@H](CN(C)C)Oc1cc(-c2cnn(C)c2)cc2ncnc(Nc3ccc4ncccc4c3F)c12 [Example 6, (R)-5-((1-(dimethylamino)propan-2-yl)oxy)-N-(5-fluoroquinolin-6-yl)-7-(1-methyl-1H-pyrazol-4-yl)quinazolin-4-amine]
EGFR L858R
  IC50: < 0.01 µM
EGFR (d746-750)
  IC50: < 0.01 µM
[1]
  IC50: ≤ 0.01 µM

## C[C@H](CN(C)C)Oc1cc(-c2cnn(C)c2)cc2ncnc(Nc3ccc4ncc(F)cc4c3)c12 [Example 7, (R)-5-((1-(dimethylamino)propan-2-yl)oxy)-N-(3-fluoroquinolin-6-yl)-7-(1-methyl-1H-pyrazol-4-yl)quinazolin-4-amine]
EGFR L858R
  IC50: < 0.01 µM
EGFR (d746-750)
  IC50: < 0.01 µM
[1]
  IC50: ≤ 0.01 µM

## C[C@@H](Oc1cc(-c2cnn(C)c2)cc2ncnc(Nc3c(F)cc4ncccc4c3F)c12)C1COC1 [Example 8, (R)—N-(5,7-difluoroquinolin-6-yl)-7-(1-methyl-1H-pyrazol-4-yl)-5-(1-(oxetan-3-yl)ethoxy)quinazolin-4-amine]
EGFR L858R
  IC50: < 0.01 µM
EGFR (d746-750)
  IC50: < 0.01 µM
[1]
  IC50: ≤ 0.01 µM

## C[C@@H](Oc1cc(-c2cnn(C)c2)cc2ncnc(Nc3cc(F)c4ncccc4c3F)c12)C1COC1 [Example 9, (R)—N-(5,8-difluoroquinolin-6-yl)-7-(1-methyl-1H-pyrazol-4-yl)-5-(1-(oxetan-3-yl)ethoxy)quinazolin-4-amine]
EGFR L858R
  IC50: < 0.01 µM
EGFR (d746-750)
  IC50: < 0.01 µM
[1]
  IC50: ≤ 0.01 µM
